29 molecules from patent US20060116368A1, “4-Piperidinecarboxamide modulators of vanilloid VR1 receptor” (priority 2004, published 2006) can be followed below.

This assay concerns the target T1, Human Vanilloid Receptor 1 (Homo sapiens, UniProt Q8NER1).
T1 construct: expressed in transfected cells; host or cells: HEK 293
Put plainly: Human VR1 functional assay using FLIPR, Protocol 1. The note with it: for inhibition at 9 µM: HEK293, 9 uM, inhibition of capsaicin (EC80)-induced calcium response, HEK 293 cells transfected with hVR1, read-out: h % I (9 uM); for Emax at 12.2 µM: HEK293, 12.2 uM, test compound-induced calcium response (agonist mode), HEK 293 hVR1, read-out: % maximal reponse to capsaicin (12.2 uM); for EC50: test compound-induced calcium response at the 5-minute time point, HEK 293 hVR1, read-out: h EC50; for IC50: decreased capsaicin (EC80)-induced calcium response, HEK 293 hVR1, read-out: h IC50. Format: cell-based. On the procedure: The functional activity of the test compounds was determined by measuring changes in intracellular calcium concentration using FLIPR™ Calcium-3 Assay Kit and FLIPR™ technology.
HEK 293 cells transfected with Human Vanilloid Receptor 1 were maintained at 37° C. and 5% CO2 in: Dulbecco's Modification of Eagle's Medium (high glucose, L-glutamine, pyridoxine HCl, No sodium pyruvate), 10% FBS, 1× Penicillin-Streptomycin-Amphotericin B, 200 ug/mL zeocin. Approximately 24 hours prior to assay, 30,000 cells/well were plated onto a 384-well black clear bottom poly-D-lysine-coated assay plate with a well volume of 25 µL using Titertek Multidrop.
On the day of the assay, the medium was dumped and 50 μL 1× dye were loaded using Multidrop. Plates were incubated with dye at 37° C. for 30 minutes followed by 30 minutes incubation at room temperature. Then the plates were assayed by FLIPR™ with 2 additions: 12.5 μL test compound with 5 minutes data acquisition followed by 12.5 μL capsaicin at the EC80 concentration.
The EC50 values of test compounds were calculated based on a test compound-induced calcium response at the 5-minute time point. The IC50 values of compounds were calculated based on a decreased capsaicin-induced calcium response in the presence of test compound.

T1 sequence (Q8NER1 whole entry): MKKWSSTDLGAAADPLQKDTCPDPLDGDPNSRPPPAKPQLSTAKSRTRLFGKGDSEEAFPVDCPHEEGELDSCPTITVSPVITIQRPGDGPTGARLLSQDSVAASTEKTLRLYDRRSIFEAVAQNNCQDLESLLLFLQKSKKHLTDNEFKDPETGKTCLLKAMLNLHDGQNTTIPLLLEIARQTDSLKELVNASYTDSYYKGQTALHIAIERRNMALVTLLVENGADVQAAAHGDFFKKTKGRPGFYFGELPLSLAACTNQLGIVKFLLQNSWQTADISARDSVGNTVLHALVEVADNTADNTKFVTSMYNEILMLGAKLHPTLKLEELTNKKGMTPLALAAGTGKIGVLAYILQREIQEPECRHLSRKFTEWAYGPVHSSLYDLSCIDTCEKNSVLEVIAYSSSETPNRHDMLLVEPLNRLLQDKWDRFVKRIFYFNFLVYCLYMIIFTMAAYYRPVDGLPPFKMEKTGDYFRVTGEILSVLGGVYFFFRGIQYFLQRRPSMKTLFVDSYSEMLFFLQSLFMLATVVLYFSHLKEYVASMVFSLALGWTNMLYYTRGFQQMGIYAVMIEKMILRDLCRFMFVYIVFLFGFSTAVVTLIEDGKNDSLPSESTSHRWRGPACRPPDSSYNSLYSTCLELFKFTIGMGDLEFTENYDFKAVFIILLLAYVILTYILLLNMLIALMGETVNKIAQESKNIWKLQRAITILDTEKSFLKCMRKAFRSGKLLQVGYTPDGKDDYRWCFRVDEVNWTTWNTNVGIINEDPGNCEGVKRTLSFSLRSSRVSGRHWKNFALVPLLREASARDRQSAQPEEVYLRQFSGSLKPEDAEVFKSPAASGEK

As to `O=C(Nc1nsc2ccc([N+](=O)[O-])cc12)C1CCN(c2cccc(C(F)(F)F)c2)CC1` [Example 20, 1-(3-Trifluoromethyl-phenyl)-piperidine-4-carboxylic acid (5-nitro-benzo[d]isothiazol-3-yl)-amide], the inhibition at 9 µM was found to be 2.5%.
What is called EC50 is the concentration giving half of the maximal effect. As to `COc1ccc(NC(=O)C2CCN(c3cccc(C(F)(F)F)c3)CC2)cn1` [Example 25, 1-(3-Trifluoromethyl-phenyl)-piperidine-4-carboxylic acid (6-methoxy-pyridin-3-yl)-amide], the Emax at 12.2 µM was found to be 74% and the EC50 was found to be 0.85 µM.
Taken in the same sequence, the figures for `O=C(Nc1cccc2cc[nH]c12)C1CCN(c2cccc(C(F)(F)F)c2)CC1` [Example 30, 1-(3-Trifluoromethyl-phenyl)-piperidine-4-carboxylic acid (1H-indol-7-yl)-amide] were 40% and 5.31 µM.
As to `CN(C)c1nc(NC(=O)C2CCN(c3cccc(C(F)(F)F)c3)CC2)ncc1-c1ccccc1` [Example 35, 1-(3-Trifluoromethyl-phenyl)-piperidine-4-carboxylic acid (4-dimethylamino-5-phenyl-pyrimidin-2-yl)-amide], the inhibition at 9 µM stood at 14%.
Still for that read-out and setting: for `O=C(Nc1cc(-c2cccs2)n[nH]1)C1CCN(c2cccc(C(F)(F)F)c2)CC1` [Example 48, 1-(3-Trifluoromethyl-phenyl)-piperidine-4-carboxylic acid (5-thiophen-2-yl-2H-pyrazol-3-yl)-amide] the value was 9.5%.
One may read the IC50 as the point on the concentration scale where inhibition reaches its midpoint. Regarding `O=C1COc2ccc(NC(=O)C3CCN(c4ccccc4C(F)(F)F)CC3)cc2N1` [Example 165, 1-(2-Trifluoromethyl-phenyl)-piperidine-4-carboxylic acid (3-oxo-3,4-dihydro-2H-benzo[1,4]oxazin-6-yl)-amide], the inhibition at 9 µM is 94.8% and the IC50 came out at 0.38 µM.
Take `Cn1ncc2cc(NC(=O)C3CCN(c4cccc(C(F)(F)F)c4)CC3)ccc21` [Example 24, 1-(3-Trifluoromethyl-phenyl)-piperidine-4-carboxylic acid (1-methyl-1H-indazol-5-yl)-amide]: the Emax at 12.2 µM was found to be 68.5% and the EC50 is 1.5 µM.
As for `O=C(Nc1cnc2ccccc2c1)C1CCN(c2ccc(C(F)(F)F)cc2)CC1` [Example 4, 1-(4-Trifluoromethyl-phenyl)-piperidine-4-carboxylic acid quinolin-3-ylamide], the inhibition at 9 µM is 7.5%.
On the same count and under the same terms, for `O=C(Nc1ccc(Oc2ccccc2)nc1)C1CCN(c2cccc(C(F)(F)F)c2)CC1` [Example 32, 1-(3-Trifluoromethyl-phenyl)-piperidine-4-carboxylic acid (6-phenoxy-pyridin-3-yl)-amide] the value was 13%; for `O=C(Nc1cc(-c2ccco2)n[nH]1)C1CCN(c2cccc(C(F)(F)F)c2)CC1` [Example 47, 1-(3-Trifluoromethyl-phenyl)-piperidine-4-carboxylic acid (5-furan-2-yl-2H-pyrazol-3-yl)-amide], 12%.
Take `O=C(Nc1cnc2ccccc2c1)C1CCN(c2cccc(-c3ccccc3)c2)CC1` [Example 3, 1-Biphenyl-3-yl-piperidine-4-carboxylic acid quinolin-3-ylamide]: the inhibition at 9 µM is 44% and the concentration for half-maximal inhibition (IC50) was determined as 15.5 µM.
Taken in the same sequence, the figures for `Cc1c(Cl)cccc1N1CCC(C(=O)Nc2ccc3c(c2)NC(=O)CO3)CC1` [Example 157, 1-(3-Chloro-2-methyl-phenyl)-piperidine-4-carboxylic acid (3-oxo-3,4-dihydro-2H-benzo[1,4]oxazin-6-yl)-amide] were 90.3% and 0.1 µM.
The corresponding values for `O=C1COc2ccc(NC(=O)C3CCN(c4ccccc4)CC3)cc2N1` [Example 139, 1-Phenyl-piperidine-4-carboxylic acid (3-oxo-3,4-dihydro-2H-benzo[1,4]oxazin-6-yl)-amide] are 85% and 1.81 µM.
As to `CC(=O)N1CCc2cc(NC(=O)C3CCN(c4cccc(C(F)(F)F)c4)CC3)ccc21` [Example 29, 1-(3-Trifluoromethyl-phenyl)-piperidine-4-carboxylic acid (1-acetyl-2,3-dihydro-1H-indol-5-yl)-amide], the inhibition at 9 µM amounted to 13%.
Regarding `O=C(Nc1ccc2c(c1)OCCCO2)C1CCN(c2cccc(C(F)(F)F)c2)CC1` [Example 28, 1-(3-Trifluoromethyl-phenyl)-piperidine-4-carboxylic acid (3,4-dihydro-2H-benzo[b][1,4]dioxepin-7-yl)-amide], the inhibition at 9 µM was 77% and the IC50 came to 2.18 µM.
`Cc1cccc(N2CCC(C(=O)Nc3cnc4ccccc4c3)CC2)c1C` [Example 5, 1-(2,3-Dimethyl-phenyl)-piperidine-4-carboxylic acid quinolin-3-ylamide]: the inhibition at 9 µM is 102% and the IC50 came out at 0.23 µM.
Take `O=C(Nc1ncnc2ccccc12)C1CCN(c2cccc(C(F)(F)F)c2)CC1` [Example 39, 1-(3-Trifluoromethyl-phenyl)-piperidine-4-carboxylic acid quinazolin-4-ylamide]: the inhibition at 9 µM was found to be 3.5%.
Turning to `CNc1ccc2ncncc2c1NC(=O)C1CCN(c2cccc(C(F)(F)F)c2)CC1` [Example 45, 1-(3-Trifluoromethyl-phenyl)-piperidine-4-carboxylic acid (6-methylamino-quinazolin-5-yl)-amide], the inhibition at 9 µM is 5%.
Consider `O=C(Nc1cnc2ccccc2c1)C1CCN(c2cccc(C(F)(F)F)c2)CC1` [Example 2, 1-(3-Trifluoromethyl-phenyl)-piperidine-4-carboxylic acid quinolin-3-ylamide], for which the inhibition at 9 µM was 109% and the IC50 came to 0.6 µM.
The corresponding values for `O=C(Nc1ccc2c(c1)OCO2)C1CCN(c2cccc(C(F)(F)F)c2)CC1` [Example 15, 1-(3-Trifluoromethyl-phenyl)-piperidine-4-carboxylic acid benzo[1,3]dioxol-5-ylamide] are 61% and 4.57 µM.
Taken in the same sequence, the figures for `O=C1COc2ccc(NC(=O)C3CCN(c4c(F)c(F)c(Br)c(F)c4F)CC3)cc2N1` [Example 164, 1-(4-Bromo-2,3,5,6-tetrafluoro-phenyl)-piperidine-4-carboxylic acid (3-oxo-3,4-dihydro-2H-benzo[1,4]oxazin-6-yl)-amide] were 87% and 0.11 µM.
Taken in the same sequence, the figures for `COc1cccc(N2CCC(C(=O)Nc3ccc4c(c3)NC(=O)CO4)CC2)c1` [Example 150, 1-(3-Methoxy-phenyl)-piperidine-4-carboxylic acid (3-oxo-3,4-dihydro-2H-benzo[1,4]oxazin-6-yl)-amide] were 79.3% and 1.42 µM.
For the molecule `O=C(Nc1cnc2ccccc2c1)C1CCN(c2ccc(-c3ccccc3)cc2)CC1` [Example 1, 1-Biphenyl-4-yl-piperidine-4-carboxylic acid quinolin-3-ylamide], the inhibition at 9 µM was 7%.
On to `Cc1nc2cc(NC(=O)C3CCN(c4cccc(C(F)(F)F)c4)CC3)ccc2s1` [Example 19, 1-(3-Trifluoromethyl-phenyl)-piperidine-4-carboxylic acid (2-methyl-benzothiazol-5-yl)-amide], for which the inhibition at 9 µM is 7.5%.
Regarding `COc1ccc(-c2cnc(NC(=O)C3CCN(c4cccc(C(F)(F)F)c4)CC3)nc2C)cc1OC` [Example 42, 1-(3-Trifluoromethyl-phenyl)-piperidine-4-carboxylic acid [5-(3,4-dimethoxy-phenyl)-4-methyl-pyrimidin-2-yl]-amide], the inhibition at 9 µM turned out to be 11%.
The same measure, in the same setting: for `N#Cc1c(N2CCC(C(=O)Nc3ccc4c(c3)NC(=O)CO4)CC2)cccc1C(F)(F)F` [Example 162, 1-(2-Cyano-3-trifluoromethyl-phenyl)-piperidine-4-carboxylic acid (3-oxo-3,4-dihydro-2H-benzo[1,4]oxazin-6-yl)-amide] the value was 37%.
With `O=C1COc2ccc(NC(=O)C3CCN(c4cccc(Br)c4)CC3)cc2N1` [Example 149, 1-(3-Bromo-phenyl)-piperidine-4-carboxylic acid (3-oxo-3,4-dihydro-2H-benzo[1,4]oxazin-6-yl)-amide], the inhibition at 9 µM was 91.3% and the IC50 turned out to be 0.33 µM.
As to `Cc1cc(Cl)nnc1NC(=O)C1CCN(c2cccc(C(F)(F)F)c2)CC1` [Example 51, 1-(3-Trifluoromethyl-phenyl)-piperidine-4-carboxylic acid (6-chloro-4-methyl-pyridazin-3-yl)-amide], the inhibition at 9 µM turned out to be 8%.
Same read-out and setting: for `O=C(Nc1ccc2c(c1)N(CCO)C(=O)CO2)C1CCN(c2cccc(C(F)(F)F)c2)CC1` [Example 168, 1-(3-Trifluoromethyl-phenyl)-piperidine-4-carboxylic acid [4-(2-hydroxy-ethyl)-3-oxo-3,4-dihydro-2H-benzo[1,4]oxazin-6-yl]-amide] the value was 59.6%.
